Several values for one entry are separate records, joined by “and”; a condition that tells them apart may be missing. Equal values may be shown once. Read-outs that look alike come from different tables or passages of the source.
How the values were obtained:
[1] = tested on: NCI-H292; experiment: Cell growth inhibition, resazurin, 48 h; assay type: cell-based, human; details: NCI-H292, 48 h drug exposure
[2] = molecular target: T1, chymotrypsin-like activity of rabbit muscle 20S proteasome (Oryctolagus cuniculus, UniProt G1T4Q9); experiment: In vitro inhibition of 20S proteasome, suc-LLVY-AMC
T1 sequence (G1T4Q9 1-263): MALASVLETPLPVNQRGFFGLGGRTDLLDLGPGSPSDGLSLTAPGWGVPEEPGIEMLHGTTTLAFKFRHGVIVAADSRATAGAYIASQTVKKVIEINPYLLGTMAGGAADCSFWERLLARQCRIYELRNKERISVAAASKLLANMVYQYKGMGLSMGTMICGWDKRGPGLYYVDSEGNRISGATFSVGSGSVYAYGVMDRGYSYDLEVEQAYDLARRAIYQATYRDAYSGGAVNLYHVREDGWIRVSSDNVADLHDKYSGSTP

[3] = tested on: NF-κB-mediated luciferase activity in HEK293 NF-κB/Luc cells; experiment: NF-κB-mediated luciferase reporter gene assay; assay type: cell-based, human; details: for EC50: 6 h TNF-α stimulation; for luciferase activity upon TNF-α stimulation: pretreatment of NF-κB/Luc 293 cells
Description: The HEK293 NF-κB/luciferase reporter cell line is a derivative of the human embryonic kidney cell line (ATCC; CRL-1573) and carries a luciferase reporter gene under the regulation of 5×NF-κB binding sites. […] When performing the luciferase assay, the DMEM basal medium was replaced with phenol-red free DMEM basal medium and the G418 was omitted.
For NF-κB-mediated luciferase assays, HEK293 NF-κB/luciferase cells were seeded at 1.5×10^4 cells/well in 90 μl phenol-red free DMEM complete medium into Corning 3917 white opaque-bottom tissue culture plates. For Formulae II-2, II-4, II-5A and II-18, a 400 μM starting dilution was made in 100% DMSO and this dilution was used to generate an 8-point half log dilution series. […] For formula II-20, a 2.5 mM or 8 mM starting dilution was made in 100% DMSO and the final test concentrations ranged from 6.3 μM to 2.0 nM or 20 μM to 6.3 nM respectively. The plates were returned to the incubator for 1 hour. After 1 hr pretreatment, 10 μl of a 50 ng/ml TNF-α solution, prepared in the phenol-red free DMEM medium was added, and the plates were incubated for an additional 6 hours.
At the end of the TNF-α stimulation, 100 μl of Steady Lite HTS luciferase reagent (Packard Bioscience) was added to each well and the plates were left undisturbed for 10 min at room temperature before measuring the luciferase activity. The relative luciferase units (RLU) were measured by using a Fusion microplate fluorometer (Packard Bioscience).
NF-κB inducible luciferase activity was measured at 6 hours.

[4] = tested on: PC-3; experiment: Cell growth inhibition, resazurin, 48 h; details: Homo sapiens, PC-3, 48 h, PC-3, 48 h drug exposure
[5] = tested on: HT-29; experiment: Cell growth inhibition, resazurin, 48 h; assay type: cell-based, human; details: HT-29, 48 h drug exposure
Description: (§1) RPMI 8226 (CCL-155), HT-29 (HTB-38), and B16-F10 (CRL-6475) cells were purchased from ATCC. RPMI 8226 cells were maintained in RPMI 1640 media supplemented with 10% (v/v) FBS, 2 mM L-glutamine, 1 mM sodium pyruvate and Penicillin/Streptomycin at 100 IU/ml and 100 μg/ml, respectively. HT-29 cells were maintained in McCoys 5A supplemented with 10% (v/v) FBS, 2 mM L-glutamine, 1 mM sodium pyruvate, 1% (v/v) non-essential amino acids, 10 mM HEPES and Penicillin/Streptomycin at 100 IU/ml and 100 μg/ml, respectively. B16-F10 cells were maintained in DMEM supplemented with 10% (v/v) FBS, 2 mM L-glutamine, 10 mM HEPES and Penicillin/Streptomycin at 100 IU/ml and 100 μg/ml, respectively.
(§2) RPMI 8226 cells were seeded at 2×10^4 cells/well in 90 μl RPMI media containing 10% (v/v) FBS or 1% (v/v) FBS into 96 well black-walled, clear-bottom tissue culture plates. […] Formulae II-16, II-17 and Formula II-18 were serially diluted in media containing 1% or 10% FBS and added in triplicate to the test wells. […] The final concentration of Formula II-18 ranged from 2 μM to 630 pM.

[6] = tested on: OVCAR-3; experiment: Cell growth inhibition, resazurin, 48 h; assay type: cell-based, human; details: OVCAR-3, 48 h drug exposure
[7] = tested on: B16-F10; experiment: Cell growth inhibition, resazurin, 48 h; assay type: cell-based, mouse; details: B16-F10, 48 h drug exposure
Description: as §1, §2

[8] = tested on: MDA-MB-231; experiment: Cell growth inhibition, resazurin, 48 h; assay type: cell-based, human; details: MDA-MB-231, 48 h drug exposure
[9] = molecular target: T2, trypsin-like activity of rabbit muscle 20S proteasome (Oryctolagus cuniculus, UniProt G1SWK8); experiment: In vitro inhibition of 20S proteasome, Boc-LRR-AMC; assay type: biochemical; details: for EC50: purified rabbit 20S proteasome, Boc-LRR-AMC; for inhibition of the trypsin-like activity of the 20S proteasome: under the conditions tested
T2 construct: EC50 Trypsin-like; other: purified rabbit 20S proteasome, Boc-LRR-AMC; other: under the conditions tested
T2 sequence (G1SWK8 1-271): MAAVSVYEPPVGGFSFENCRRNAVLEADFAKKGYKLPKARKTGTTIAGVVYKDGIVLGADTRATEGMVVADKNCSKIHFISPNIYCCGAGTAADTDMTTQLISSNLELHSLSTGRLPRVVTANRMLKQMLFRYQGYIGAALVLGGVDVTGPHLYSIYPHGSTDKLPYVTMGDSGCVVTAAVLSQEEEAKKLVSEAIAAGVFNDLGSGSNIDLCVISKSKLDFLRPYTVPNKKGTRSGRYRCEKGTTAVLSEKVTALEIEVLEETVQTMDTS

[10] = molecular target: caspase-like (PGPH) activity of rabbit muscle 20S proteasome (Oryctolagus cuniculus, UniProt A0A5F9DQW2); experiment: In vitro inhibition of 20S proteasome, Z-LLE-AMC; details: purified rabbit 20S proteasome, Z-LLE-AMC
caspase-like (PGPH) activity of rabbit muscle 20S proteasome, sequence (A0A5F9DQW2 1-212): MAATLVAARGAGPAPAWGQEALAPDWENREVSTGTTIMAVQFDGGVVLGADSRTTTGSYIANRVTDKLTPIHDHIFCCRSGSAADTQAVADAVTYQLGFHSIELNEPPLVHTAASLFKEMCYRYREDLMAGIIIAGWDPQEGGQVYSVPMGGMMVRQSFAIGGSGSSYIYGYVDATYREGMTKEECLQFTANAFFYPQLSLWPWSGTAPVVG

[11] = tested on: HL-60; experiment: Cell growth inhibition, resazurin, 48 h; details: HL-60, 48 h drug exposure
Description: (§3) The DNA binding agent Mitoxantrone was included as a control, as HL-60/MX2 cells are reported to be resistant to this chemotherapeutic agent (Harker W. G. et al. 1989).
(§4) Concentrations ranging from 6.32 μM to 2 nM were tested for II-2 and II-4.

[12] = tested on: HL-60/MX2; experiment: Cell growth inhibition, resazurin, 48 h; details: HL-60/MX2, 48 h drug exposure
Description: as §3, §4

[13] = tested on: MES-SA; experiment: Cell growth inhibition, resazurin, 48 h; details: 48 h drug exposure
Description: as §4

[14] = tested on: U266; experiment: Cell growth inhibition, resazurin, 48 h; assay type: cell-based, human; details: Homo sapiens, U-266, 48 h, U266, 48 h drug exposure; read-out: EC50
[15] = tested on: RPMI 8226; experiment: Cell growth inhibition, resazurin, 48 h
Description: as §1, §2

[16] = read-out: EC50 Chymotrypsin-like, purified rabbit 20S proteasome, suc-LLVY-AMC
[17] = read-out: EC50 Caspase-like (PGPH)

Compound | EC50 ([1]; Homo sapiens, NCI-H292, 48 h) [µM] | EC50 [2] [µM] | EC50 [2, 16] [µM] | EC50 ([3]; 1 h pretreatment) [µM] | luciferase activity upon TNF-α stimulation [3] | EC50 [4] [µM] | EC50 ([5]; Homo sapiens, HT-29, 48 h) [µM] | EC50 ([6]; Homo sapiens, OVCAR-3, 48 h) [µM] | EC50 [6] [µM] | EC50 ([7]; Mus musculus, B16-F10, 48 h) [µM] | EC50 ([8]; Homo sapiens, MDA-MB-231, 48 h) [µM] | EC50 [9] [µM] | inhibition of the trypsin-like activity of the 20S proteasome [9] | EC50 [10, 17] | also measured
C[C@@]12OC(=O)[C@]1([C@@H](O)[C@H]1CCC[C@H]3O[C@@H]13)NC(=O)[C@@H]2CCCl [Formula II-5A] | 0.102 ± 0.019 | 0.002 to 0.011 | 0.007 | 0.033 | dose-dependent decrease of luciferase activity | 0.109 ± 0.015 | 0.067 ± 0.017 | 0.08 | 0.064 | 0.078 ± 0.011 | 0.061 ± 0.0046 | 0.09 | able to inhibit the trypsin-like activity | 0.535 µM and 0.438 µM | –
C[C@@]12OC(=O)[C@]1([C@@H](O)[C@H]1CCC[C@@H]3O[C@H]13)NC(=O)[C@@H]2CCCl [Formula II-5B] | 0.992 | 0.013 to 0.088 | 0.085 | 0.279 | dose-dependent decrease of luciferase activity | 1.79 | – | 1.32 | – | 1.27 | – | – | able to inhibit the trypsin-like activity | – | EC50 [1]: 1.25 µM; EC50 [5]: 1.21 µM; EC50 [7]: 1.14 µM; EC50 [8]: 0.957 µM; EC50 ([10]; read-out: EC50 Caspase-like): 3.8 µM and 2.9 µM
C[C@@]12OC(=O)[C@]1([C@@H](O)[C@@H]1C=CCCC1)NC(=O)[C@@H]2CCBr [Formula II-18] | – | – | – | – | dose-dependent decrease of luciferase activity | – | – | – | – | – | – | – | able to inhibit the trypsin-like activity | 0.286 µM and 0.213 µM | EC50 [11]: 0.023 µM; EC50 ([11]; Homo sapiens, HL-60, 48 h): 0.027 µM; EC50 [12]: 0.018 µM; EC50 ([12]; Homo sapiens, HL60/MX2, 48 h): 0.019 µM; EC50 [13]: 0.017 µM; EC50 ([13]; Homo sapiens, 48 h): 0.022 µM; EC50 [14]: 0.0042 µM; EC50 ([3]; 1 h pretreatment, listed as II-18, read-out: EC50): 0.011 µM; EC50 ([3]; 1 h pretreatment, read-out: EC50): 0.011 µM; EC50 ([3]; Homo sapiens, HEK293, 1 h pretreatment, read-out: EC50): 0.009 µM; EC50 ([15]; Homo sapiens, RPMI-8226, 48 h, RPMI 8226, 48 h drug exposure): 0.0063 µM; EC50 ([15]; Homo sapiens, RPMI-8226, read-out: 1% FBS, EC50, Mean, RPMI 8226, media containing 1% FBS, mean of two): 0.014 µM; EC50 ([15]; Homo sapiens, RPMI-8226, read-out: 10% FBS, EC50, Mean, RPMI 8226, media containing 10% FBS, mean of two): 0.02 µM; % cytotoxicity ([15]; human, 48 h): 94, 94%; EC50 ([10]; read-out: EC50 Caspase-like (PGPH), listed as II-18): 0.286 µM and 0.213 µM
C[C@@]12OC(=O)[C@]1([C@@H](O)[C@@H]1C=CCCC1)NC(=O)[C@@H]2CCI [Formula II-19] | 0.027 ± 0.0038 | 0.002 to 0.011 | – | 0.01 | dose-dependent decrease of luciferase activity | 0.029 ± 0.004 | 0.011 ± 0.0016 | 0.024 | 0.02 | 0.013 ± 0.0019 | 0.014 ± 0.0032 | 0.015 | able to inhibit the trypsin-like activity | 0.739 µM | EC50 ([3]; 1 h pretreatment, listed as II-19): 0.01 µM; EC50 ([3]; Homo sapiens, HEK293, 1 h pretreatment): 0.007 µM; EC50 ([15]; RPMI 8226, 48 h drug exposure): 0.006 µM and 0.007 µM
